Measurements reported in PubChem BioAssay (NCI).
Several values for one entry are separate records, joined by “and”; a condition that tells them apart may be missing. Identical values can stand only once.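 The compound was tested at five concentrations on cells cultured in 96-well plates, with a 48-hour exposure period. At the GI50, growth is halved. TGI: concentration producing complete growth inhibition.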

Tests used:
Assay in all cases: growth of human tumour cells (NCI), 48 h
PC-3 prostate = test system: PC-3 prostate
HCT-15 colon = test system: HCT-15 colon
CCRF-CEM leukemia = test system: CCRF-CEM leukemia
EKVX NSCLC = test system: EKVX NSCLC
LOX IMVI melanoma = test system: LOX IMVI melanoma
BT-549 breast = test system: BT-549 breast
OVCAR-8 ovarian = test system: OVCAR-8 ovarian
CAKI-1 renal = test system: CAKI-1 renal
M14 melanoma = test system: M14 melanoma
SNB-19 CNS = test system: SNB-19 CNS

Row | SMILES | GI50 (PC-3 prostate) | TGI (PC-3 prostate) | GI50 (HCT-15 colon) | TGI (HCT-15 colon) | GI50 (CCRF-CEM leukemia) | GI50 (EKVX NSCLC) | TGI (EKVX NSCLC) | GI50 (LOX IMVI melanoma) | TGI (LOX IMVI melanoma) | GI50 (BT-549 breast) | TGI (BT-549 breast) | GI50 (OVCAR-8 ovarian) | GI50 (CAKI-1 renal) | TGI (CAKI-1 renal) | GI50 (M14 melanoma) | TGI (M14 melanoma) | GI50 (SNB-19 CNS) | TGI (SNB-19 CNS) | TGI (CCRF-CEM leukemia) | TGI (OVCAR-8 ovarian)
1 | CN(C)c1ccc2nc3ccc(=[N+](C)C)cc-3sc2c1 | 0.161 µM and 0.288 µM | 2.71 µM and 16.2 µM | 0.446 µM and 0.795 µM | 18.2 µM and > 100 µM | 0.394 µM and 0.685 µM | 4.24 µM and 0.804 µM | 28.3 µM and 29.4 µM | 0.404 µM and 0.65 µM | 7.61 µM and 10.4 µM | 9.74 µM and 3.26 µM | 24.2 µM and 22.7 µM | 0.261 µM and 0.39 µM | 2.17 µM and 1.96 µM | 19.4 µM and 8.5 µM | 0.337 µM and 0.407 µM | 1.49 µM and 3.4 µM | 0.908 µM and 0.543 µM | 16.3 µM and 46.1 µM | – | –
2 | O=C1c2c(O)cccc2C(C2OC(CO)C(O)C(O)C2O)c2cc(CO)cc(O)c21 (stereo not given) | – | > 100 µM | – | > 100 µM | – | – | > 100 µM | – | > 100 µM | – | > 100 µM | – | – | > 100 µM | – | > 100 µM | – | > 100 µM | > 100 µM | > 100 µM
3 | O=c1nc2oc3ccc4ccccc4c3cc-2s1 | 3.16 µM | > 100 µM | > 45.7 µM | > 100 µM | 0.989 µM | 59.6 µM | > 100 µM | 4.09 µM | > 100 µM | 4.35 µM | > 100 µM | 29.4 µM | 1.16 µM | > 100 µM | 1.09 µM | > 100 µM | 6.73 µM | > 100 µM | > 100 µM | > 100 µM
4 | C=C1C(=O)OC2C1C(OC(=O)/C(C)=C/C)CC(O)(CCl)C1C(O)C3OC3(C)C21O (stereo not given) | – | > 50 µM | – | > 50 µM | – | – | > 50 µM | – | > 50 µM | – | > 50 µM | – | – | > 50 µM | – | > 50 µM | – | > 50 µM | > 50 µM | 42.5 µM
5 | C=C(CO[Si](C)(C)C(C)(C)C)C(C)=O | – | 98.5 µM | – | 77.6 µM | – | – | > 100 µM | – | 24.7 µM | – | 44 µM | – | – | 46.9 µM | – | 27.5 µM | – | > 100 µM | 9.01 µM | 37.5 µM
6 | O=C(Nc1ccc(Cl)cc1)Nc1ccc(Nc2nncc3ccccc23)cc1 | 2.32 µM | 11 µM | 1.59 µM | 11.8 µM | 2.57 µM | 2.95 µM | 25.3 µM | 0.825 µM | 14.6 µM | 2.15 µM | 9.28 µM | 3.12 µM | 1.97 µM | 12.5 µM | 1.52 µM | 11.5 µM | 3.67 µM | 19 µM | 17 µM | 12.4 µM
7 | COc1c(Cl)cc(NC(=S)C#N)cc1Cl | – | > 100 µM | – | 46.8 µM | – | – | > 74 µM | – | 38.8 µM | – | 39.5 µM | – | – | 58.4 µM | – | 64.4 µM | – | > 100 µM | > 100 µM | > 69.3 µM
8 | CN(C)c1ccc2c(c1)OC(N)=C(C#N)C2c1ccc2c(c1)CCO2 (stereo not given) | 0.0664 µM | > 100 µM | < 0.0262 µM | > 100 µM | 0.216 µM | 0.47 µM | > 100 µM | 0.053 µM | 17.9 µM | 0.0385 µM | 12.4 µM | 0.39 µM | 0.147 µM | > 100 µM | 0.0417 µM | 11.4 µM | 1.17 µM | > 100 µM | > 52.6 µM | 39.9 µM
9 | C/C=C(/COC(C)=O)C(=O)OC1C=C(C=O)C(C)(C)C=C1C (stereo not given) | – | > 100 µM | – | > 100 µM | – | – | > 100 µM | – | > 100 µM | – | > 100 µM | – | – | > 100 µM | – | > 100 µM | – | > 100 µM | > 100 µM | > 100 µM
10 | COc1ccc(/C=C2\CCCC3=C2NC(N)=NC3c2ccc(OC)c(OC)c2)cc1OC (stereo not given) | 20.4 µM | > 100 µM | 9.68 µM | > 100 µM | 2.42 µM | 39.7 µM | > 100 µM | 4.63 µM | 41.1 µM | 3.62 µM | > 100 µM | 2.08 µM | 4.11 µM | > 100 µM | 6.25 µM | > 73.2 µM | > 88.7 µM | > 100 µM | > 100 µM | > 100 µM
11 | NC(=S)N/N=C/c1ncccc1N | 6.5 µM | > 100 µM | 3.14 µM | > 100 µM | 1.14 µM | 5.13 µM | > 100 µM | 0.439 µM | 8.25 µM and > 10 µM | 2.96 µM | > 100 µM | – | 0.357 µM | > 38.5 µM | – | 5.27 µM and 2.62 µM | 1.78 µM | > 84.9 µM | > 58.4 µM | > 100 µM
12 | CC[C@H](CO)Nc1nc(NCc2ccccc2)n2ncc(C(C)C)c2n1 | 0.927 µM | 12.3 µM | 0.872 µM | 10.5 µM | 0.648 µM | 2.41 µM | 9.13 µM | 1.07 µM | 10.3 µM | 1.56 µM | 5.29 µM | 2.15 µM | 1.02 µM | 8.35 µM | 2 µM | 7.93 µM | 1.44 µM | 12.3 µM | 9.26 µM | 54.8 µM
13 | CCCCN(CCCC)c1ccc(C(=N)c2ccc(N(CCCC)CCCC)cc2)cc1 | 0.296 µM | 1.03 µM | 0.418 µM | 1.62 µM | 0.557 µM | 0.277 µM | 1.15 µM | 0.313 µM | 1.19 µM | 1.42 µM | 2.89 µM | 0.396 µM | 0.535 µM | 1.82 µM | 0.672 µM | 2.09 µM | 0.468 µM | 1.91 µM | 2.27 µM | 1.37 µM
14 | CCN(CC)Cc1ccc(Nc2nccc(-c3cnn4ncccc34)n2)cc1 | 0.0184 µM | > 25 µM | 0.0265 µM | > 25 µM | 0.0148 µM | 0.0498 µM | – | 0.00767 µM | > 25 µM | 0.0377 µM | 0.139 µM | 0.0133 µM | 0.0469 µM | > 9.11 µM | 0.0291 µM | 0.0845 µM | 0.0296 µM | > 25 µM | > 25 µM | > 25 µM
